# According to patent US20150344485A1, “BICYCLIC PYRIMIDONE COMPOUNDS AS INHIBITORS OF LP-PLA2” (GLAXOSMITHKLINE INTELLECTUAL PROPERTY DEVELOPMENT LIMITED, priority 2013, published 2015):
# Target: T1, Lp-PLA2 in human plasma (Homo sapiens, UniProt Q13093)
# T1 construct: from tissue; host or cells: pooled human plasma
# T1 sequence (Q13093 22-441): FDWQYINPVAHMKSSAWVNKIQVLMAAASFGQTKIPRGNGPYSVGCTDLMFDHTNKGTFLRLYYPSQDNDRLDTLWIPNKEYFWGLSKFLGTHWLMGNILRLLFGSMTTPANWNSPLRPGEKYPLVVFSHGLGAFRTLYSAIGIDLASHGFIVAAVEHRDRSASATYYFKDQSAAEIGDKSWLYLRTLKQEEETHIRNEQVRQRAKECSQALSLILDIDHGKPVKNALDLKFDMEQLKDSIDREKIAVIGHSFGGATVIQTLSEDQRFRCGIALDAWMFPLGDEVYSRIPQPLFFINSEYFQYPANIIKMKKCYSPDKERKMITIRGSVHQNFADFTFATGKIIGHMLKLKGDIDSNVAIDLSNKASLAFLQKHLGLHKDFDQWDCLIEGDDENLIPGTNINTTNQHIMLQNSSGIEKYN
# Test: Lp-PLA2 human plasma assay (Thio-PAF assay)
# Format: biochemical
# Conditions: pooled human plasma; read-out: pIC50 values in the thio-PAF assay (converted)
# From the text: The human plasma assay utilizes a thioester analog of PAF (phosphatidylcholine), where hydrolysis yields to the formation of a phospholipid containing a free thiol group. The amount of thiol is quantitated continuously by reacting with CPM (7-diethylamino-3-(4′-maleimidylphenyl)-4-methylcoumarin), a maleimide which increases in fluoresence after Michael addition of thiols. This assay may detect the activity of Lp-PLA2 in human plasma, as determined by specific inhibition by Lp-PLA2 inhibitors.
# The thio-PAF assay was run as a quenched 15 μL assay. Compounds source plate was prepared by making 1:3 (by volume) serial dilution of the compounds into pure DMSO on 384-well microplate. 0.01 μL of compounds on compound source plate were transferred to 384 well Greiner 784076 (black) low-volume plates by ECHO liquid dispenser. 8 μL pooled human plasma, which was previously aliquoted and frozen, was added. Plates were centrifuged for 10 sec at 500 rpm. After 30 minutes preincubation, 2 μL of substrate solution comprising 2.5 mM 2-thio-PAF [from ethanol stock], 32 μM CPM [from a DMSO stock] and 3.2 mM NEM (N-ethylmaleimide) [made fresh daily in DMSO] in assay buffer of 50 mM HEPES, pH 7.4, 150 mM NaCl, 1 mM CHAPS was added to 384 well Greiner 784076 (black) low-volume plates by BRAVO liquid handling station. After 2 mins, reaction was quenched with 5 μL of 5% aqueous trifluoroacetic acid (TFA). Plates were covered to protect from light and incubated for 40 min at room temperature. Plates were read at ex: 380/em: 485 using-Envision microplate reader. pIC50 data, curve and QC analysis was conducted by using XLFit module in Excel.
row,SMILES,IC50
1,"C[C@H]1CCn2c(cc(OCc3cc(F)c(F)c(F)c3)nc2=O)N1 [E45, (S)-2-methyl-8-((3,4,5-trifluorobenzyl)oxy)-3,4-dihydro-1H-pyrimido[1,6-a]pyrimidin-6(2H)-one]",≤ 10 nM
2,"C[C@@H]1CCn2c(cc(OCc3cc(F)c(F)c(F)c3)nc2=O)N1C [E16, (R)-1,2-dimethyl-8-((3,4,5-trifluorobenzyl)oxy)-3,4-dihydro-1H-pyrimido[1,6-a]pyrimidin-6(2H)-one]",≤ 100 nM
3,"C[C@H]1CCn2c(cc(OCc3ccc(Oc4ccc(Cl)c(F)c4)c(C#N)c3)nc2=O)N1C [E66, (S)-2-(4-chloro-3-fluorophenoxy)-5-(((1,2-dimethyl-6-oxo-2,3,4,6-tetrahydro-1H-pyrimido[1,6-a]pyrimidin-8-yl)oxy)methyl)benzonitrile]",≤ 10 nM
4,"CC1CCn2c(cc(OCc3cccc(F)c3)nc2=O)N1C (stereo not drawn) [E12, 8-((3-fluorobenzyl)oxy)-1,2-dimethyl-3,4-dihydro-1H-pyrimido[1,6-a]pyrimidin-6(2H)-one]",≤ 100 nM
5,"CC(C)N1c2cc(OCc3cccc(F)c3F)nc(=O)n2CC[C@@H]1C [E139, (S)-8-((2,3-difluorobenzyl)oxy)-1-isopropyl-2-methyl-3,4-dihydro-1H-pyrimido[1,6-a]pyrimidin-6(2H)-one]",≤ 100 nM
6,"CC1CCn2c(cc(OCc3ccc(F)cc3)nc2=O)N1C (stereo not drawn) [E9, 8-((4-fluorobenzyl)oxy)-1,2-dimethyl-3,4-dihydro-1H-pyrimido[1,6-a]pyrimidin-6(2H)-one]",≤ 100 nM
7,"C[C@@H]1CCn2c(cc(OCc3cc(F)c(Oc4ccc(Cl)c(F)c4)c(F)c3)nc2=O)N1C [E63, (R)-8-((4-(4-chloro-3-fluorophenoxy)-3,5-difluorobenzyl)oxy)-1,2-dimethyl-3,4-dihydro-1H-pyrimido[1,6-a]pyrimidin-6(2H)-one]",≤ 10 nM
8,"CN1c2cc(OCc3cccc(F)c3)nc(=O)n2CCC1(C)C [E134, 8-((3-fluorobenzyl)oxy)-1,2,2-trimethyl-3,4-dihydro-1H-pyrimido[1,6-a]pyrimidin-6(2H)-one]",≤ 100 nM
9,"C[C@H]1CCn2c(cc(OCc3ccc(F)c(F)c3)nc2=O)N1 [E40, (S)-8-((3,4-difluorobenzyl)oxy)-2-methyl-3,4-dihydro-1H-pyrimido[1,6-a]pyrimidin-6(2H)-one]",≤ 100 nM
10,"CN1c2cc(OCc3cc(F)cc(F)c3)nc(=O)n2CCC1(C)C [E74, 8-((3,5-difluorobenzyl)oxy)-1,2,2-trimethyl-3,4-dihydro-1H-pyrimido[1,6-a]pyrimidin-6(2H)-one]",≤ 100 nM
11,"CN1c2cc(OCc3cccc(F)c3F)nc(=O)n2CCC1(C)C [E72, 8-((2,3-difluorobenzyl)oxy)-1,2,2-trimethyl-3,4-dihydro-1H-pyrimido[1,6-a]pyrimidin-6(2H)-one]",≤ 100 nM
12,"C[C@@H]1CCn2c(cc(OCc3ccc(F)cc3)nc2=O)N1C [E20, (R)-8-((4-fluorobenzyl)oxy)-1,2-dimethyl-3,4-dihydro-1H-pyrimido[1,6-a]pyrimidin-6(2H)-one]",≤ 100 nM
13,"C[C@@H]1CCn2c(cc(OCc3cccc(F)c3F)nc2=O)N1C [E18, (R)-8-((2,3-difluorobenzyl)oxy)-1,2-dimethyl-3,4-dihydro-1H-pyrimido[1,6-a]pyrimidin-6(2H)-one]",≤ 100 nM
14,"C[C@@H]1CCn2c(cc(OCc3cccc(C#N)c3)nc2=O)N1C [E127, (R)-3-(((1,2-dimethyl-6-oxo-2,3,4,6-tetrahydro-1H-pyrimido[1,6-a]pyrimidin-8-yl)oxy)methyl)benzonitrile]",≤ 100 nM
15,"C[C@H]1CCn2c(cc(OCc3cc(F)c(Oc4cccc(Cl)c4)c(F)c3)nc2=O)N1C [E59, (S)-8-((4-(3-chlorophenoxy)-3,5-difluorobenzyl)oxy)-1,2-dimethyl-3,4-dihydro-1H-pyrimido[1,6-a]pyrimidin-6(2H)-one]",≤ 100 nM
16,"C[C@H]1CCn2c(cc(OCc3ccc(Oc4ccc(C(F)(F)F)cc4)c(C#N)c3)nc2=O)N1C [E61, (S)-5-(((1,2-dimethyl-6-oxo-2,3,4,6-tetrahydro-1H-pyrimido[1,6-a]pyrimidin-8-yl)oxy)methyl)-2-(4-(trifluoromethyl)phenoxy)benzonitrile]",≤ 10 nM
17,"[2H]C([2H])(Oc1cc2n(c(=O)n1)CC[C@H](C)N2C)c1cc(F)c(F)c(F)c1 [E36, (S)-8-(dideutero(3,4,5-trifluorophenyl)methoxy)-1,2-dimethyl-3,4-dihydro-1H-pyrimido[1,6-a]pyrimidin-6(2H)-one]",≤ 100 nM
18,"[2H]C([2H])(Oc1cc2n(c(=O)n1)CC[C@@H](C)N2C)c1cc(F)cc(F)c1 [E50, (R)-8-((3,5-difluorophenyl)dideuteromethoxy)-1,2-dimethyl-3,4-dihydro-1H-pyrimido[1,6-a]pyrimidin-6(2H)-one]",≤ 100 nM
19,"CCN1c2cc(OCc3cccc(F)c3F)nc(=O)n2CC[C@@H]1C [E53, (S)-8-((2,3-difluorobenzyl)oxy)-1-ethyl-2-methyl-3,4-dihydro-1H-pyrimido[1,6-a]pyrimidin-6(2H)-one]",≤ 100 nM
20,"CC1CCn2c(cc(OCc3cccc(C#N)c3)nc2=O)N1C (stereo not drawn) [E10, 3-(((1,2-dimethyl-6-oxo-2,3,4,6-tetrahydro-1H-pyrimido[1,6-a]pyrimidin-8-yl)oxy)methyl)benzonitrile]",≤ 100 nM

# Second part, the molecule after the results:
row,IC50,SMILES
1,≤ 100 nM,"C[C@H]1CCn2c(cc(OCc3cc(F)c(F)cc3F)nc2=O)N1C [E42, (S)-1,2-dimethyl-8-((2,4,5-trifluorobenzyl)oxy)-3,4-dihydro-1H-pyrimido[1,6-a]pyrimidin-6(2H)-one]"
2,≤ 100 nM,"[2H]C([2H])(Oc1cc2n(c(=O)n1)CC[C@H](C)N2C)c1cc(F)cc(F)c1 [E49, (S)-8-((3,5-difluorophenyl)dideuteromethoxy)-1,2-dimethyl-3,4-dihydro-1H-pyrimido[1,6-a]pyrimidin-6(2H)-one]"
3,≤ 100 nM,"[2H]C([2H])(Oc1cc2n(c(=O)n1)CC[C@@H](C)N2C)c1cccc(F)c1F [E19, (R)-8-((2,3-difluorophenyl)dideuteromethoxy)-1,2-dimethyl-3,4-dihydro-1H-pyrimido[1,6-a]pyrimidin-6(2H)-one]"
4,≤ 100 nM,"[2H]C([2H])(Oc1cc2n(c(=O)n1)CCC(C)(C)N2C)c1cc(F)c(F)c(F)c1 [E55, 8-(dideutero(3,4,5-trifluorophenyl)methoxy)-1,2,2-trimethyl-3,4-dihydro-1H-pyrimido[1,6-a]pyrimidin-6(2H)-one]"
5,≤ 10 nM,"C[C@H]1CCn2c(cc(OCc3cc(F)c(Oc4ccc(Cl)c(F)c4)c(F)c3)nc2=O)N1C [E58, (S)-8-((4-(4-chloro-3-fluorophenoxy)-3,5-difluorobenzyl)oxy)-1,2-dimethyl-3,4-dihydro-1H-pyrimido[1,6-a]pyrimidin-6(2H)-one]"
6,≤ 100 nM,"C[C@H]1CCn2c(cc(OCc3cccc(C#N)c3)nc2=O)N1C [E128, (S)-3-(((1,2-dimethyl-6-oxo-2,3,4,6-tetrahydro-1H-pyrimido[1,6-a]pyrimidin-8-yl)oxy)methyl)benzonitrile]"
7,≤ 100 nM,"C[C@@H]1CCn2c(cc(OCc3cccc(F)c3)nc2=O)N1C [E130, (R)-8-((3-fluorobenzyl)oxy)-1,2-dimethyl-3,4-dihydro-1H-pyrimido[1,6-a]pyrimidin-6(2H)-one]"
8,≤ 100 nM,"C[C@@H]1CCn2c(cc(OCc3ccc(F)cc3)nc2=O)N1 [E27, (R)-8-((4-fluorobenzyl)oxy)-2-methyl-3,4-dihydro-1H-pyrimido[1,6-a]pyrimidin-6(2H)-one]"
9,≤ 100 nM,"CCN1c2cc(OCc3cc(F)c(F)cc3F)nc(=O)n2CC[C@@H]1C [E52, (S)-1-ethyl-2-methyl-8-((2,4,5-trifluorobenzyl)oxy)-3,4-dihydro-1H-pyrimido[1,6-a]pyrimidin-6(2H)-one]"
10,≤ 10 nM,"C[C@@H]1CCn2c(cc(OCc3cc(F)c(Oc4cccc(Cl)c4)c(F)c3)nc2=O)N1C [E64, (R)-8-((4-(3-chlorophenoxy)-3,5-difluorobenzyl)oxy)-1,2-dimethyl-3,4-dihydro-1H-pyrimido[1,6-a]pyrimidin-6(2H)-one]"
